Data taken from patent US11691992B2 (Anacor Pharmaceuticals, Inc., priority 2017, dated 2023).
Where two headings read alike, the source gives them in different places.

Assays:
Format in all cases: cell-based
[1] = system: L. infantum MHOM/MA(BE)/67 amastigotes in primary peritoneal mouse macrophages; assay: Leishmania infantum intracellular amastigote assay in mouse macrophages; conditions: Macrophage, 120 h
How it was run: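 Amastigotes harvested from infected hamster spleen infected primary peritoneal mouse macrophages (5×10^5 amastigotes/well, 2 h, 37 °C). Compounds then present 5 d at 37 °C, 5% CO2. Parasite burden counted by microscopy after Giemsa staining, as % of untreated controls; IC50 from sigmoidal variable-slope fit.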

[2] = system: bloodstream forms of T. b. rhodesiense STIB 900; assay: T. brucei rhodesiense STIB 900 growth inhibition assay; conditions: Trypanosoma brucei, 72 h
How it was run: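 Bloodstream-form STIB 900 (10^4/well) were cultured in supplemented MEM with 15% horse serum and compound (90 to 0.123 μg/ml, 3-fold steps) for 72 h at 37 °C, 5% CO2. Viability was read by Alamar Blue fluorescence (ex 536/em 588 nm) after a further 2-4 h.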

[3] = system: bloodstream-form trypanosome T. brucei brucei 427 strain; assay: Trypanosoma brucei brucei high-throughput screening assay (resazurin)
Procedure: Example 105. Trypanosoma brucei brucei High-Throughput Screening Assay Procedure
All experiments were conducted with the bloodstream-form trypanosome T. brucei brucei 427 strain obtained from Seattle Biomedical Research Institute (Seattle, Wash.). Parasites were cultured in T-25 vented cap flasks and kept in humidified incubators at 37° C. and 5% CO2. The parasite culture media was complete HMI-9 medium containing 10% FBS, 10% Serum Plus medium and penicillin/streptomycin. To ensure log growth phase, trypanosomes were sub-cultured at appropriate dilutions every 2-3 days. Approximately 50 microliters of log phase cultures were diluted 1:10 in HMI-9 and 10 μL of the diluted culture was removed and counted using a hemocytometer to determine parasite concentration. Parasites were diluted by addition of an appropriate volume of HMI-9 to achieve a final parasite concentration of 2×10^5/mL. Compounds of the invention to be tested were serially diluted in DMSO and 0.5 μL added to 49.5 μL HMI-9 in triplicate 96-well plates using a Biomek NX liquid handler. Parasites from the diluted stock were added to each well (50 μL) using a Multidrop 384 dispenser to give a final concentration of 1.0×10^5/ml parasites in […] for DMSO. Trypanosomes were incubated with compounds for 72 hrs at 37° C. with 5% CO2. Resazurin (20 μL of 12.5 mg/ml stock) from Sigma-Aldrich was added to each well and plates were incubated for an additional 2-4 hrs. Assay plates were read using an EnVision plate reader at an excitation wavelength of 544 nm and emission of 590 nm. Triplicate data points were averaged to generate sigmoidal dose response curve and determine IC50 values using XLfit curve fitting software from IDBS (Guildford, UK).

[4] = system: T. cruzi Tulahuen strain C2C4 containing the β-galactosidase (Lac Z) gene in rat skeletal myoblasts (L-6 cells); assay: Trypanosoma cruzi C2C4 screening assay
Procedure: Example 113: Trypanosoma cruzi C2C4 Screening Assay Procedure
Rat skeletal myoblasts (L-6 cells) were seeded in 96-well microtiter plates at 2×10^3 cells/well in 100 μL RPMI 1640 medium with 10% FBS and 2 mM L-glutamine. After 24 h the medium was removed and replaced by 100 μL per well containing 5×10^3 trypomastigote forms of T. cruzi Tulahuen strain C2C4 containing the β-galactosidase (Lac Z) gene (Buckner, et al., Antimicrobial Agents and Chemotherapy, 40: 2592-2597 (1996)). After 48 h the medium was removed from the wells and replaced by 100 μL fresh medium with or without a serial drug dilution of the seven 3-fold dilution steps covering a range from 90 to 0.123 μg/mL. After 96 h of incubation the plates were inspected under an inverted microscope to assure growth of the controls and sterility. The substrate (50 μL) chlorophenol red-β-D-galactopyranoside (CPRG, Roche Diagnostics, Ltd) in 0.25% Nonidet P-40/PBS was added to all wells and a color reaction developed within 2-6 h which was read photometrically at 540 nm. Data were transferred into the graphic program Softmax Pro (Molecular Devices), which calculated IC50 values.

[5] = amastigotes in primary peritoneal mouse macrophages, 5 d, Giemsa staining, read-out: Inhibition of Organism Growth in Leishmania infantum MHOM/MA/BE/67, 5 d
[6] = bloodstream forms, Alamar Blue, protocol of Example 110, read-out: IC50: I Org. Growth T. brucei rhodesiense STIB 900, 3 d
[7] = bloodstream form, 72 hrs incubation, resazurin, read-out: IC50: I Org. Growth T. brucei brucei SBRI 427, 3 d
[8] = L6, in L-6 cells, 96 h, CPRG, read-out: SCYNEXIS IC50: I Org. Growth T. cruzi Tulahuen C2C4 Lac Z, 4 d
[9] = read-out: Inhibition of Organism Growth in Leishmania infantum MHOM/MA/BE/67, 5 d [uM]
[10] = read-out: IC50: I Org. Growth T. brucei rhodesiense STIB 900, 3 d [uM]
[11] = 72 h, read-out: IC50: I Org. Growth T. brucei brucei SBRI 427, 3 d [uM]
[12] = L6, 96 h, read-out: SCYNEXIS IC50: I Org. Growth T. cruzi Tulahuen C2C4 Lac Z, 4 d [uM]

| SMILES | IC50 [1, 5] [µM] | IC50 [2, 6] [µM] | IC50 [3, 7] [µM] | further results |
| --- | --- | --- | --- | --- |
| Cc1c(C(=O)Nc2ccc3c(c2)B(O)OC3)nnn1-c1ccccn1 [Example 84, N-(1-hydroxy-1,3-dihydrobenzo[c][1,2]oxaborol-6-yl)-5-methyl-1-(pyridin-2-yl)-1H-1,2,3-triazole-4-carboxamide] | < 3 | < 0.1 | < 0.075 | IC50 [4, 8]: < 0.06 µM |
| O=C(Nc1ccc2c(c1)B(O)OC2)c1nnn(-c2ccccc2F)c1C(F)(F)F [Example 67, 1-(2-Fluorophenyl)-N-(1-hydroxy-1,3-dihydrobenzo[c][1,2]oxaborol-6-yl)-5-(trifluoromethyl)-1H-1,2,3-triazole-4-carboxamide] | 20 to 100 | 0.1 to 0.3 | – | – |
| O=C(Nc1ccc2c(c1)B(O)OC2)c1nnn(-c2ccc(F)cc2)c1C(F)(F)F [Example 70, 1-(4-Fluorophenyl)-N-(1-hydroxy-1,3-dihydrobenzo[c][1,2]oxaborol-6-yl)-5-(trifluoromethyl)-1H-1,2,3-triazole-4-carboxamide] | < 3 | 0.31 to 10 | – | – |
| O=C(Nc1ccc2c(c1)B(O)OC2)c1cn(-c2ccccn2)nn1 [Example 61, N-(1-hydroxy-1,3-dihydrobenzo[c][1,2]oxaborol-6-yl)-1-(pyridin-2-yl)-1H-1,2,3-triazole-4-carboxamide] | < 3 | < 0.1 | < 0.075 | IC50 [4, 8]: < 0.06 µM |
| Cc1c(C(=O)Nc2ccc3c(c2)B(O)OC3)nnn1-c1ccccc1 [Example 89, A-(1-hydroxy-1,3-dihydrobenzo[c][1,2]oxaborol-6-yl)-5-methyl-1-phenyl-1H-1,2,3-triazole-4-carboxamide] | – | – | – | IC50 [1, 9]: 20 to 100 µM; IC50 [2, 10]: < 0.1 µM; IC50 [3, 11]: < 0.075 µM; IC50 [4, 12]: < 0.06 µM |
| O=C(Nc1ccc2c(c1)B(O)OC2)c1nnn(-c2ccccc2)c1C(F)(F)F [Example 68, N-(1-hydroxy-1,3-dihydrobenzo[c][1,2]oxaborol-6-yl)-1-phenyl-5-(trifluoromethyl)-1H-1,2,3-triazole-4-carboxamide] | – | – | – | IC50 [1, 9]: < 3 µM; IC50 [2, 10]: < 0.1 µM; IC50 [3, 11]: 0.151 to 10 µM; IC50 [4, 12]: 0.11 to 1 µM |
| COc1ccc(-n2nnc(C(=O)Nc3ccc4c(c3)B(O)OC4)c2C)cc1 [Example 91, N-(1-hydroxy-1,3-dihydrobenzo[c][1,2]oxaborol-6-yl)-1-(4-methoxyphenyl)-5-methyl-1H-1,2,3-triazole-4-carboxamide] | – | – | < 0.075 | – |
| O=C(Nc1ccc2c(c1)B(O)OC2)c1nnn(-c2cccnc2)c1C(F)(F)F [Example 71, N-(1-hydroxy-1,3-dihydrobenzo[c][1,2]oxaborol-6-yl)-1-(pyridin-3-yl)-5-(trifluoromethyl)-1H-1,2,3-triazole-4-carboxamide] | < 3 | 0.1 to 0.3 | – | – |
| O=C(Nc1ccc2c(c1)B(O)OC2)c1nnn(-c2cccc(F)c2)c1C(F)(F)F [Example 69, 1-(3-Fluorophenyl)-N-(1-hydroxy-1,3-dihydrobenzo[c][1,2]oxaborol-6-yl)-5-(trifluoromethyl)-1H-1,2,3-triazole-4-carboxamide] | < 3 | 0.1 to 0.3 | – | – |
| Cc1c(C(=O)Nc2ccc3c(c2)B(O)OC3)nnn1-c1cccnc1 [Example 93, N-(1-hydroxy-1,3-dihydrobenzo[c][1,2]oxaborol-6-yl)-5-methyl-1-(pyridin-3-yl)-1H-1,2,3-triazole-4-carboxamide] | 20 to 100 | 0.31 to 10 | – | – |
| O=C(Nc1ccc2c(c1)B(O)OC2)c1cn(-c2ccc(F)cc2)nn1 [Example 60, 1-(4-Fluorophenyl)-N-(1-hydroxy-1,3-dihydrobenzo[c][1,2]oxaborol-6-yl)-1H-1,2,3-triazole-4-carboxamide] | < 3 | – | 0.075 to 0.15 | IC50 [4, 8]: 0.06 to 0.1 µM |
